Experimental findings from ChEMBL document CHEMBL1142249, “Identification and optimization of a novel series of [2.2.1]-oxabicyclo imide-based androgen receptor antagonists” (Bioorg Med Chem Lett, 2008) are described below.

A short description of series [1]: Tmax in BALB/c mouse at 1.0 mmol/kg, po. Particulars: in vivo. It counts as ADME, organism-based.
Series [2] can be described thus: AUC (0 to 6 hrs) in BALB/c mouse at 1.0 mmol/kg, po. It counts as ADME, organism-based. The arrangement: dose 1 mmol/kg, time < 6 hr, route oral. Particulars: plasma.
The nature of series [3]: Cmax in BALB/c mouse at 1.0 mmol/kg, po. The arrangement: dose 1 mmol/kg, route oral. It counts as ADME, organism-based. Particulars: in vivo.
The target of series [4] is T1, Androgen receptor (Homo sapiens, UniProt P10275).
T1 sequence (P10275 whole entry): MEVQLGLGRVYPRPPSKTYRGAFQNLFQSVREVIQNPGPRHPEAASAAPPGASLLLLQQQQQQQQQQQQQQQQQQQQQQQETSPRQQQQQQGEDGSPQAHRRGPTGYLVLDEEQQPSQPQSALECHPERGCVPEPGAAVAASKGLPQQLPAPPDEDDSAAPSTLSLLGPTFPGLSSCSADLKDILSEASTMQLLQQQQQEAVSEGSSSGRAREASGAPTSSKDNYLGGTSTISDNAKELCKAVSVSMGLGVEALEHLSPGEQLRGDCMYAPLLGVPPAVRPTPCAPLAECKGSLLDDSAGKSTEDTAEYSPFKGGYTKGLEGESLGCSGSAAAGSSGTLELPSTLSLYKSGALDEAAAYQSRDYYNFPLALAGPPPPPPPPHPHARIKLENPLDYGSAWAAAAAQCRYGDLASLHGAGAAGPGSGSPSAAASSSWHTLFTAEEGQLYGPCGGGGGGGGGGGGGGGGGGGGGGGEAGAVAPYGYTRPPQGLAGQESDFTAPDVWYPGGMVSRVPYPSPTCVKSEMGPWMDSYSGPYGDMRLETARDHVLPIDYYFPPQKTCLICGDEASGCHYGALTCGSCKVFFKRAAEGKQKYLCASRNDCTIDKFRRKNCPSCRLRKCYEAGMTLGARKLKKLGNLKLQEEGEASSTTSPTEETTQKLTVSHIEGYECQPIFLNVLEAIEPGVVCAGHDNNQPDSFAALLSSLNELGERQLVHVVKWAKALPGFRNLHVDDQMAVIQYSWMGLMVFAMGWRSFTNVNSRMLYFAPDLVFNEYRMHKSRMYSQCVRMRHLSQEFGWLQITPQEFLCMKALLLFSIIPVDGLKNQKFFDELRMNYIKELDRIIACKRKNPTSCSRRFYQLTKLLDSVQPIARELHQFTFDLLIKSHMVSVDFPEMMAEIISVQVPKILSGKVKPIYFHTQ
Description: Antagonist activity at human androgen receptor in MDA453 cells by alkaline phosphatase reporter gene assay

Series [5] deals with T1, Androgen receptor. The series is described as follows: Displacement of [3H]DHT from human androgen receptor in MDA453 cells. Background: Displacement assays read how much labelled ligand stays bound in the presence of the test substance.
In another series the test system is Liver microsomes. The series is described as follows: Metabolic stability in human liver microsome assessed per milligram of protein. The format is ADME. On the technique in general: Microsomes from liver hold many membrane-bound enzymes, among them those of drug oxidation.
A short description of series [6]: Drug level in human CWR22R cells xenografted mouse plasma at 10 mg/kg, po after 24 hrs on day 60. It counts as ADME, organism-based. The arrangement: dose 10 mg/kg, route oral. Particulars: read-out: Drug uptake.
Series [7] is described as follows: Drug level in human CWR22R cells xenografted mouse plasma at 10 mg/kg, po after 1 hr on day 60. The format is ADME, organism-based. The arrangement: dose 10 mg/kg, route oral. Particulars: read-out: Drug uptake.
The nature of series [8]: Drug level in human CWR22R cells xenografted mouse plasma at 90 mg/kg, po after 1 hr on day 60. As to conditions: read-out: Drug uptake. The arrangement: dose 90 mg/kg, route oral. The format is ADME, organism-based.
Series [9] can be described thus: Drug level in human CWR22R cells xenografted mouse plasma at 90 mg/kg, po after 24 hrs on day 60. The arrangement: dose 90 mg/kg, route oral. Particulars: read-out: Drug uptake. It counts as ADME, organism-based. (In general: A xenograft is tissue or cells of one species grown in another, often human tumour cells in immunodeficient mice.)
Series [10] can be described thus: Drug level in human CWR22R cells xenografted mouse plasma at 50 mg/kg, po after 1 hr on day 60. It counts as ADME, organism-based. The arrangement: dose 50 mg/kg, route oral. As to conditions: read-out: Drug uptake.
Series [11] can be described thus: Drug level in human CWR22R cells xenografted mouse plasma at 50 mg/kg, po after 24 hrs on day 60. The format is ADME, organism-based. The arrangement: dose 50 mg/kg, route oral. As to conditions: read-out: Drug uptake.

With `O=C1[C@@H]2C3CCC(O3)[C@@H]2C(=O)N1c1ccc([N+](=O)[O-])c2ccccc12`, in [1], the Tmax was 30 min. The compound further gave an AUC(0-t) at 6 h in [2] of 11.4 µM·h. The compound also displayed a Cmax in series [3] of 100 µM. Also, the 50% inhibitory concentration (IC50) on Androgen receptor [4] was over 5 µM. The compound also came in with a Ki on Androgen receptor [5] of 0.003 µM.
Regarding `CC12CCC(C)(O1)[C@H]1C(=O)N(c3ccc([N+](=O)[O-])c4c(Br)cccc34)C(=O)[C@H]12`, it took 0.04 µM to reach half-maximal inhibition on Androgen receptor [4] (IC50). On Androgen receptor [5], this compound yielded a Ki of 0.017 µM.
For the compound `CC12C[C@@H](O)C(C)(O1)[C@H]1C(=O)N(c3ccc(C#N)c(I)c3)C(=O)[C@H]12` (some centres undefined), 0.019 µM corresponded to half-maximal inhibition against Androgen receptor [4] (IC50). The Stability with Liver microsomes is 0.04 mmol/min/mg. Affinity on Androgen receptor [5] was put at a Ki of 0.00241 µM.
For `CC12C[C@H](O)C(C)(O1)[C@@H]1C(=O)N(c3ccc(C#N)c(I)c3)C(=O)[C@@H]12` (some centres undefined), the concentration at 24 h in series [6] was determined as 8 µM; in series [9] it was 23.6 µM. For the same compound, the concentration at 1 h in series [7] was 26 µM; in [8] it was 55.5 µM. At Androgen receptor [4], the IC50 came to 0.01 µM. The compound further came in with a Stability with Liver microsomes of 0.001 mmol/min/mg. Also, the inhibition constant Ki on Androgen receptor [5] turned out to be 0.00718 µM.
For the compound `O=C1[C@@H]2C3CCC(O3)[C@@H]2C(=O)N1c1ccc(Cl)c(Cl)c1`, the IC50 against Androgen receptor [4] was 0.48 µM. Further, the affinity at Androgen receptor [5] corresponds to a Ki of 0.377 µM.
Take `CC12CCC(C)(O1)[C@H]1C(=O)N(c3cc(Cl)cc(Cl)c3)C(=O)[C@H]12`: the IC50 on Androgen receptor [4] stood at 0.016 µM. Moreover, at Androgen receptor [5], affinity was put at a Ki of 0.003 µM.
Compound `CSc1cc(N2C(=O)[C@@H]3[C@H](C2=O)C2(C)CCC3(C)O2)ccc1C#N` registered an IC50 on Androgen receptor [4] of 0.019 µM. The same compound gave a Ki on Androgen receptor [5] of 0.003 µM.
For `CC(C)(C)OC(=O)N1CC2CC1[C@@H]1C(=O)N(c3ccc(C#N)c(C(F)(F)F)c3)C(=O)N21` (some centres undefined) the same measures were 0.774 µM and 0.04 µM.
For `CC12CCC(C)(O1)[C@H]1C(=O)N(c3cccc(C(F)(F)F)c3)C(=O)[C@H]12`, in that order: 0.036 µM and 0.041 µM.
For `O=C1[C@@H]2C3CCC(O3)[C@@H]2C(=O)N1c1ccc(I)c(Cl)c1`, in that order: 0.35 µM and 0.221 µM.
On to `O=C1[C@H]2C3CCC(C3)N2C(=O)N1c1cccc(C(F)(F)F)c1` (some centres undefined), for which, in series [1], the time of peak concentration (Tmax) was determined as 30 min. Further, the area under the curve AUC(0-t) at 6 h in [2] came out at 11.4 µM·h. This compound also returned a Cmax in [3] of 1.74 µM. Moreover, inhibition against Androgen receptor [4] was half-maximal at 0.13 µM (IC50). Moreover, on Androgen receptor [5], the affinity corresponds to a Ki of 0.021 µM.
Take `CC12CCC(C)(O1)[C@H]1C(=O)N(c3ccc(C#N)c(C(F)(F)F)c3)C(=O)[C@H]12`: at Androgen receptor [4], the IC50 worked out at 0.007 µM. This compound also returned a Ki on Androgen receptor [5] of 0.017 µM.
For `CC12CCC(C)(O1)[C@H]1C(=O)N(c3c(N)ccc4ncsc34)C(=O)[C@H]12`, in that order: 0.12 µM and 0.017 µM.
The compound `O=C1[C@@H]2C3CCC(O3)[C@@H]2C(=O)N1c1ccc(Br)c2ccccc12` displayed a concentration for half-maximal inhibition (IC50) against Androgen receptor [4] of 0.67 µM. The same compound registered an inhibition constant (Ki) at Androgen receptor [5] of 0.053 µM.
Regarding `O=C1[C@@H]2C3CCC(C3)[C@@H]2C(=O)N1c1cccc(C(F)(F)F)c1`, the time to peak (Tmax) in series [1] stood at 30 min. The same compound returned an AUC(0-t) at 6 h in series [2] of 0.056 µM·h. In addition, in [3], the peak level (Cmax) was 0.023 µM. Further, at Androgen receptor [4], the midpoint of inhibition, the IC50, lay at 0.152 µM. Also, the inhibitory constant (Ki) at Androgen receptor [5] came out at 0.36 µM.
For the compound `CC12CCC(C)(O1)[C@H]1C(=O)N(c3ccc(C#N)c(I)c3)C(=O)[C@H]12`, half-maximal inhibition against Androgen receptor [4] (IC50) was put at 0.007 µM. In the series on Liver microsomes, this compound gave a Stability of 0.8 mmol/min/mg. Further, the inhibition constant Ki at Androgen receptor [5] was 0.001 µM.
On Androgen receptor [4], `Cc1ccc(N2C(=O)[C@@H]3C4CCC(O4)[C@@H]3C2=O)cc1Cl` gave an IC50 of 2.29 µM. At Androgen receptor [5], this compound came in with an inhibition constant (Ki) of 0.486 µM.
Compound `CC12CCC(C)(O1)[C@H]1C(=O)N(c3c(N)ccc4nccn34)C(=O)[C@H]12` displayed an IC50 on Androgen receptor [4] of 0.07 µM. For the same compound, affinity at Androgen receptor [5] was put at a Ki of 0.027 µM.
For `CC12CCC(C)(O1)[C@H]1C(=O)N(c3cnc(C#N)c(Cl)c3)C(=O)[C@H]12` the same measures were 0.038 µM and 0.004 µM.
On Androgen receptor [4], `O=C1[C@@H]2C3CCC(O3)[C@@H]2C(=O)N1c1ccc(Cl)c(C(F)(F)F)c1` had a half-maximal inhibitory concentration (IC50) of 3.31 µM. On Androgen receptor [5], the affinity, expressed as Ki, was 1.11 µM.
As for `CC(O)(CS(=O)(=O)c1ccc(F)cc1)C(=O)Nc1ccc(C#N)c(C(F)(F)F)c1` (centres undefined) [BICALUTAMIDE], the concentration at 1 h in series [10] is 48.5 µM. Also, in [1], the Tmax stood at 30 min. For the same compound, the concentration at 24 h in [11] is 86 µM. In series [2], the exposure AUC(0-t) at 6 h amounted to 786 µM·h. Moreover, the peak concentration (Cmax) in series [3] is 110 µM.
`O=C1[C@@H]2C3CCC(O3)[C@@H]2C(=O)N1c1cccc(C(F)(F)F)c1` came in with a 50% inhibitory concentration (IC50) against Androgen receptor [4] of 11.5 µM. In addition, on Androgen receptor [5], the inhibition constant Ki is 4.1 µM.
For `COc1cc(N2C(=O)[C@@H]3[C@H](C2=O)C2(C)CCC3(C)O2)ccc1-c1cnco1`, in that order: 0.02 µM and 0.012 µM.
`O=C1[C@@H]2C3CCC(O3)[C@@H]2C(=O)N1c1ccc(Cl)c([N+](=O)[O-])c1`: at Androgen receptor [4], 1.15 µM corresponded to half-maximal inhibition (IC50). Further, at Androgen receptor [5], the affinity, expressed as Ki, was 0.692 µM.
For `CC12CCC(C)(O1)[C@H]1C(=O)N(c3ccc([N+](=O)[O-])c(C(F)(F)F)c3)C(=O)[C@H]12` the same measures were 0.011 µM and 0.017 µM.
On Androgen receptor [4], `CC12CCC(O1)[C@H]1C(=O)N(c3cccc(C(F)(F)F)c3)C(=O)[C@H]12` (some centres undefined) yielded a half-maximal inhibitory concentration (IC50) of 0.343 µM. The compound also showed a Ki at Androgen receptor [5] of 0.41 µM.
For `N#Cc1ccc(N2C(=O)[C@@H]3C4CCC(O4)[C@@H]3C2=O)cc1C(F)(F)F`, in that order: 2.86 µM and 1.17 µM.
As to `Cc1cc(N2C(=O)[C@@H]3C4CCC(O4)[C@@H]3C2=O)ccc1Cl`, on Androgen receptor [4], it took 0.5 µM to reach half-maximal inhibition (IC50). On Androgen receptor [5], this compound registered an inhibition constant Ki of 0.077 µM.
For `CC12CCC(C)(O1)[C@H]1C(=O)N(c3ccc(C#N)c4nsnc34)C(=O)[C@H]12`, in that order: 0.016 µM and 0.003 µM.
Consider `CC12CCC(C)(O1)[C@H]1C(=O)N(c3ccc(C#N)n4nccc34)C(=O)[C@H]12`, for which it took 0.088 µM to reach half-maximal inhibition at Androgen receptor [4] (IC50). Also, affinity at Androgen receptor [5] was put at a Ki of 0.018 µM.

A word on the Tmax: it is the time at which the peak concentration occurs. The AUC(0-t) is the area under the concentration-time curve up to a stated or last time point. Read a high AUC(0-t) as more exposure. Broadly, the Cmax is the highest concentration seen after dosing. What is called IC50 is the concentration that gives 50% inhibition. By Ki is commonly meant the equilibrium dissociation constant of an inhibitor or competing ligand from its target. Low values mean a stronger hold on the target, high ones a looser hold on the target.
